This is an account of results in ChEMBL document CHEMBL3864149, “Design, synthesis and structure-activity relationships of novel phenylalanine-based amino acids as kainate receptors ligands” (Bioorg Med Chem Lett, 2016).

SMILES strings stand for the structures. Where only a bound is given, the exact number is not on record here.

Assay [1] is described as follows: Displacement of [3H]-AMPA from AMPA receptor in rat brain membranes after 30 mins. The assay is classed as cell membranes, Membrane. For orientation: In a radioligand displacement assay an active substance lowers the binding of a labelled ligand.
The nature of assay [2]: Displacement of [3H]-kainate from kainate receptor in rat brain membranes after 60 mins. The assay is classed as cell membranes, Membrane.
Assay [3] addresses Glutamate receptor ionotropic, kainate 1 (Rattus norvegicus, UniProt P22756). Kind of assay: Displacement of [3H]-NF608 from rat recombinant GluK1 receptor expressed in baculovirus infected insect Sf9 cell membranes after 60 mins.
Assay [4] concerns the target Glutamate receptor ionotropic, kainate 3 (Rattus norvegicus, UniProt P42264). Kind of assay: Displacement of [3H]-kainate from rat recombinant GluK3 receptor expressed in baculovirus infected insect Sf9 cell membranes after 60 mins.
The target in assay [5] is Glutamate receptor ionotropic, kainate 2 (Homo sapiens, UniProt Q13002). Put plainly: Displacement of [3H]-kainate from human recombinant GluK2 receptor expressed in HEK293 cell membranes after 60 mins.
Sequence of Glutamate receptor ionotropic, kainate 2 (Q13002 whole entry): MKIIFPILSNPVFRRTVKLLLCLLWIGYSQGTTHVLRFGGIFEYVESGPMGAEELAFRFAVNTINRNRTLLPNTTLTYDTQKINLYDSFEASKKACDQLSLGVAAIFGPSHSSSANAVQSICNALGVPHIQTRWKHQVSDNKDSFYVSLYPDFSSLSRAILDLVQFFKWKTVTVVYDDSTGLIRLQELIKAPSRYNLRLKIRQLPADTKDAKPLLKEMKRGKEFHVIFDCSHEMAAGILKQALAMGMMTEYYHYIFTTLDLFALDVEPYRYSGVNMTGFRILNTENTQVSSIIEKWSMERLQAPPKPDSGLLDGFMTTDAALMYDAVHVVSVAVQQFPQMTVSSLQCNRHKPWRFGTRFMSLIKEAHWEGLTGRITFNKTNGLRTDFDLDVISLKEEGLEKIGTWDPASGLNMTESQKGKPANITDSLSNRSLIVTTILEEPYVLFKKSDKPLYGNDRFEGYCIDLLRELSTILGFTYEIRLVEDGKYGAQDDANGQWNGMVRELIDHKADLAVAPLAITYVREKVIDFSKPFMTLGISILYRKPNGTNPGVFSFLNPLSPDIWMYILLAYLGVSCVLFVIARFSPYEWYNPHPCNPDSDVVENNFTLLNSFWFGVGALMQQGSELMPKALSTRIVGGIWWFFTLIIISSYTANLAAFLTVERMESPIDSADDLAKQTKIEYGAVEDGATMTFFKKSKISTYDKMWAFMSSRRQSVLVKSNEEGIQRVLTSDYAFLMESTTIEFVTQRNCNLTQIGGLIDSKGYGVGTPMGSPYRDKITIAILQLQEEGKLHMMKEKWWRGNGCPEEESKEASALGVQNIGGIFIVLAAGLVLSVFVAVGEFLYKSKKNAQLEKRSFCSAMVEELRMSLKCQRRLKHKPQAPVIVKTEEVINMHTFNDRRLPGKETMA
The target in assay [6] is T1, Glutamate receptor ionotropic, kainate 5 (Homo sapiens, UniProt Q16478).
T1 sequence (Q16478 whole entry): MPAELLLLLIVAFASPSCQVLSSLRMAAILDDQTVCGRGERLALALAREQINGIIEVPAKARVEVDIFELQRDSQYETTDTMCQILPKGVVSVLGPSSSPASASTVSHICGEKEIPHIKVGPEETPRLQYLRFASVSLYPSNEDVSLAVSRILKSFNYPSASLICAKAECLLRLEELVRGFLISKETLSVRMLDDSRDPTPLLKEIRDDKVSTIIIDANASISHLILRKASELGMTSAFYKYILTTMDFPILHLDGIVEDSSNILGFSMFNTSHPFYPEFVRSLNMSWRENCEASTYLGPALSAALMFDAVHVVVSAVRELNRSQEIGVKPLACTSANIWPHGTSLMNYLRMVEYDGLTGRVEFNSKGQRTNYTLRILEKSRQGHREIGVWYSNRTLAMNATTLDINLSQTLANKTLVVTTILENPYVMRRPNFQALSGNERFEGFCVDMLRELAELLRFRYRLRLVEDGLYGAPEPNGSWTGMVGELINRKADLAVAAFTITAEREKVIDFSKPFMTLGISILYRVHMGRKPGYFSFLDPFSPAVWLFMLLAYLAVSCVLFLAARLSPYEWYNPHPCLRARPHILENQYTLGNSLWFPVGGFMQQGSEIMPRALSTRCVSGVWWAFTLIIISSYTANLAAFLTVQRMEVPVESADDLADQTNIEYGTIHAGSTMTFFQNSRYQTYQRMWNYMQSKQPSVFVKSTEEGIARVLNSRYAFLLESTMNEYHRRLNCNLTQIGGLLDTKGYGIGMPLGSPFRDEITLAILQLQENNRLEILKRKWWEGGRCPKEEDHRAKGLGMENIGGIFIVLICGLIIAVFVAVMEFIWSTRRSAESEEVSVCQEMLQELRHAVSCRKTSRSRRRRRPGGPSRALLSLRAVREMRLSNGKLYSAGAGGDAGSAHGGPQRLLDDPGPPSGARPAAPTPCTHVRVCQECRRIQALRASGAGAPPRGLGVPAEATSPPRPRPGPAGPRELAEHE
Put plainly: Displacement of [3H]-kainate from human recombinant GluK5 receptor expressed in HEK293 cell membranes after 60 mins.

Assay [7] can be described thus: Displacement of [3H]-AMPA from AMPA receptor in rat brain membranes after 1 hr by liquid scintillation counting method. The assay is classed as cell membranes, Membrane.
Assay [8] can be described thus: Displacement of [3H]-kainate from kainate receptor in rat brain membranes after 1 hr by liquid scintillation counting method. The assay is classed as cell membranes, Membrane.
For the next assay, the species on record is Rattus norvegicus. Kind of assay: Selectivity ratio of Ki for rat recombinant GluK3 receptor to Ki for rat recombinant GluK1 receptor.

Sequence of Glutamate receptor ionotropic, kainate 3 (P42264 whole entry): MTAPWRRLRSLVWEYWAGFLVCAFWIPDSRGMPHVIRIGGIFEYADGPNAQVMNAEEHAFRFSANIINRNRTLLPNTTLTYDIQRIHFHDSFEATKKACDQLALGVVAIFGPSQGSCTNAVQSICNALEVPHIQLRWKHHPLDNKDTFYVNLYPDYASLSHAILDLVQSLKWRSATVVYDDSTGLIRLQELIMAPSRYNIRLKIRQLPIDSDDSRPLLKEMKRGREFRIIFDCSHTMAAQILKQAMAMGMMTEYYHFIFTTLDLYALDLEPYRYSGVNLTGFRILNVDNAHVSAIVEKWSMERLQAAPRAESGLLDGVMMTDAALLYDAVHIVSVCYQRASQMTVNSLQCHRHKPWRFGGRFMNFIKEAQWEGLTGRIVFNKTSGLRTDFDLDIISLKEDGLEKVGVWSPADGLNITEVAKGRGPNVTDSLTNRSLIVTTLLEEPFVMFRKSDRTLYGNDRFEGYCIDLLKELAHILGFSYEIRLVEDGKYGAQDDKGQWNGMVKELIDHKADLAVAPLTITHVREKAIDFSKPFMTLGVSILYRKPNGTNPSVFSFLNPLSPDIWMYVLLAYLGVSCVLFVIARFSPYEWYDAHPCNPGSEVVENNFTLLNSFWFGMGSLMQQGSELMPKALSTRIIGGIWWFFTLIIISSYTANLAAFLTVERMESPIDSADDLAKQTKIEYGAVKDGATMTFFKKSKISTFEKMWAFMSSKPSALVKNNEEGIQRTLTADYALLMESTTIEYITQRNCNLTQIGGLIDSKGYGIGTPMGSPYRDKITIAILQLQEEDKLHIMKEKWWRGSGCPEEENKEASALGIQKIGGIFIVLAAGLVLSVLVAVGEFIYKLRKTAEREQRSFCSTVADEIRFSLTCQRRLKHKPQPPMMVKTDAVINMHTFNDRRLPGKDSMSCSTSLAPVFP
Sequence of Glutamate receptor ionotropic, kainate 1 (P22756 whole entry): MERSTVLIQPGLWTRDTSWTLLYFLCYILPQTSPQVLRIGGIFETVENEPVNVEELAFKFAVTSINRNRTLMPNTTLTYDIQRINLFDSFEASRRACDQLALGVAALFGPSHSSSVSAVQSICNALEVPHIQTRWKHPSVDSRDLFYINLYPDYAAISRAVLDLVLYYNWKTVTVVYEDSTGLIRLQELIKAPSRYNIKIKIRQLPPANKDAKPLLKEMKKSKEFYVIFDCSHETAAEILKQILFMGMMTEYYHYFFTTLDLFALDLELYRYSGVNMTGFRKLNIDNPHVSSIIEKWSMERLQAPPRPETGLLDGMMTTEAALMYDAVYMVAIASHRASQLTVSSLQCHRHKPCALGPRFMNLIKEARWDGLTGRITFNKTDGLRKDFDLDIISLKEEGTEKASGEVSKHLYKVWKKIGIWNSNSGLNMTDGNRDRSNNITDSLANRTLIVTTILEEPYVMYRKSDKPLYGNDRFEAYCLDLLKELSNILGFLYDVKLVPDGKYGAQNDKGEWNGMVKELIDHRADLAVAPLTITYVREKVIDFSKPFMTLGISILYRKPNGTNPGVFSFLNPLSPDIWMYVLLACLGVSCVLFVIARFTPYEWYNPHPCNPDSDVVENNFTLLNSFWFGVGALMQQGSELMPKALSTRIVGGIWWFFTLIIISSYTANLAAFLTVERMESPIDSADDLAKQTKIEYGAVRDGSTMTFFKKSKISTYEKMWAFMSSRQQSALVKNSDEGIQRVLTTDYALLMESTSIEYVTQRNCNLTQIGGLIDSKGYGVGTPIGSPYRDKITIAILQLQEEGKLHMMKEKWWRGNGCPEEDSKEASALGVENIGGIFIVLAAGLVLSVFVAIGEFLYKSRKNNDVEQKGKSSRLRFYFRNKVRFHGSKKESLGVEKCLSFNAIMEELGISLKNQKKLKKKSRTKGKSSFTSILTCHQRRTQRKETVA

`NC(Cc1cc(-c2cccc(C(=O)O)c2)cc([N+](=O)[O-])c1)C(=O)O` (racemic): the Ki is 38 µM in assay [1], over 100 µM in assay [2], 32 µM in assay [3] (read-out: Ki) and over 100 µM in [4]. The pKi – broadly, the Ki on a negative log10 scale, so that one unit is a factor of ten – in [1] is 4.43.
As to `NC(Cc1cc(-c2cccc(C(=O)O)c2)c(Cl)c([N+](=O)[O-])c1)C(=O)O` (racemic), the Ki in assay [1] is 62 µM; in [2], 32 µM; in assay [3] (read-out: Ki), 6.1 µM; in assay [3] (read-out: pKi (converted)), 5.89 µM; in [4], over 100 µM. The pKi in [1] was 4.21; in assay [2], 4.5.
On to `NC(Cc1ccc(Cl)c(-c2cccc(C(=O)O)c2)c1)C(=O)O` (racemic), for which the Ki is over 100 µM in assay [1], over 100 µM in assay [2], 35 µM in assay [3] (read-out: Ki) and over 100 µM in [4].
Consider `O=C(O)[C@@H]1C[C@H]2C[C@@H](CN3CC(F)(F)C[C@H]3C(=O)O)CC[C@H]2CN1`, for which the Ki in [5] is 0.05 µM; in [6], 8.9 µM.
On to `CC(C)(C)c1onc(OCP(=O)(O)O)c1C[C@H](N)C(=O)O`, for which the Ki in [4] is over 1000 µM. Further, the figures for the IC50 in [7] and in assay [8] were 16 µM and over 100 µM, respectively.
Take `NC(Cc1cc(Cl)cc(-c2cccc(C(=O)O)c2)c1)C(=O)O` (racemic): the Ki was 51 µM in assay [1]; over 100 µM in assay [2]; 5.7 µM in [3] (read-out: Ki); 5.5 µM in [3] (read-out: pKi (converted)); 25 µM in assay [4]. Moreover, the pKi in assay [1] is recorded as 4.31.
With `Nc1ccc(CC(N)C(=O)O)cc1-c1cccc(C(=O)O)c1` (racemic), the Ki in [1] is over 100 µM; in [2], over 100 µM; in assay [3] (read-out: Ki), 26 µM; in assay [4], over 100 µM.
For the compound `Nc1c(-c2cccc(C(=O)O)c2)cc(CC(N)C(=O)O)cc1[N+](=O)[O-]` (racemic), the Ki in assay [1] is over 100 µM; in assay [2], over 100 µM; in assay [3] (read-out: Ki) it was 7.5 µM; in [3] (read-out: pKi (converted)) it was 7.08 µM; in assay [4], over 100 µM.
In the case of `NC(Cc1cc(Cl)c(O)c(-c2cccc(C(=O)O)c2)c1)C(=O)O` (racemic), the Ki is over 100 µM in assay [1], over 100 µM in [2], 5.5 µM in [3] (read-out: Ki) and 11 µM in [4]. Also, the Ratio Ki in the assay listed under Rattus norvegicus turned out to be 2.
As for `NC(Cc1ccc([N+](=O)[O-])c(-c2cccc(C(=O)O)c2)c1)C(=O)O` (racemic), the Ki was 65 µM in assay [1], over 100 µM in assay [2], 7.2 µM in [3] (read-out: Ki) and 23 µM in assay [4]. Also, in assay [1], the pKi is on record as 4.19.
Take `Nc1c(Cl)cc(CC(N)C(=O)O)cc1-c1cccc(C(=O)O)c1` (racemic): the Ki in assay [1] was 100 µM; in [2], over 100 µM; in [3] (read-out: Ki), 4.9 µM; in assay [3] (read-out: pKi (converted)), 4.68 µM; in assay [4] it was over 100 µM. Also, in the assay filed under Rattus norvegicus, the Ratio Ki was 20.
On to `NC(Cc1cccc(-c2cccc(C(=O)O)c2)c1)C(=O)O` (centres undefined), for which the Ki in [4] was over 100 µM.
Consider `NC(Cc1cc(Cl)c(Cl)c(-c2cccc(C(=O)O)c2)c1)C(=O)O` (centres undefined), for which, in [4], the Ki is over 100 µM.
